Measurements taken from patent US20090136979A1, “Class IIA Histone Deacetylase (HDAC) Substrate” (ISTITUTO DI RICERCHE DI BIOLOGIA MOLECOLARE P. ANG, priority 2005, published 2009).
Blank lines part the entries; values can stand above or below the compound they belong to.

Tests used:
HDAC4-FLAG [1] = molecular target: T1, HDAC4-FLAG (Homo sapiens, UniProt P56524); format: binding; settings: cross-linking assay
T1 construct: the full length HDAC4protein (HDAC4-FLAG) was also analysed; FLAG (C); made in house
T1 sequence (P56524 whole entry): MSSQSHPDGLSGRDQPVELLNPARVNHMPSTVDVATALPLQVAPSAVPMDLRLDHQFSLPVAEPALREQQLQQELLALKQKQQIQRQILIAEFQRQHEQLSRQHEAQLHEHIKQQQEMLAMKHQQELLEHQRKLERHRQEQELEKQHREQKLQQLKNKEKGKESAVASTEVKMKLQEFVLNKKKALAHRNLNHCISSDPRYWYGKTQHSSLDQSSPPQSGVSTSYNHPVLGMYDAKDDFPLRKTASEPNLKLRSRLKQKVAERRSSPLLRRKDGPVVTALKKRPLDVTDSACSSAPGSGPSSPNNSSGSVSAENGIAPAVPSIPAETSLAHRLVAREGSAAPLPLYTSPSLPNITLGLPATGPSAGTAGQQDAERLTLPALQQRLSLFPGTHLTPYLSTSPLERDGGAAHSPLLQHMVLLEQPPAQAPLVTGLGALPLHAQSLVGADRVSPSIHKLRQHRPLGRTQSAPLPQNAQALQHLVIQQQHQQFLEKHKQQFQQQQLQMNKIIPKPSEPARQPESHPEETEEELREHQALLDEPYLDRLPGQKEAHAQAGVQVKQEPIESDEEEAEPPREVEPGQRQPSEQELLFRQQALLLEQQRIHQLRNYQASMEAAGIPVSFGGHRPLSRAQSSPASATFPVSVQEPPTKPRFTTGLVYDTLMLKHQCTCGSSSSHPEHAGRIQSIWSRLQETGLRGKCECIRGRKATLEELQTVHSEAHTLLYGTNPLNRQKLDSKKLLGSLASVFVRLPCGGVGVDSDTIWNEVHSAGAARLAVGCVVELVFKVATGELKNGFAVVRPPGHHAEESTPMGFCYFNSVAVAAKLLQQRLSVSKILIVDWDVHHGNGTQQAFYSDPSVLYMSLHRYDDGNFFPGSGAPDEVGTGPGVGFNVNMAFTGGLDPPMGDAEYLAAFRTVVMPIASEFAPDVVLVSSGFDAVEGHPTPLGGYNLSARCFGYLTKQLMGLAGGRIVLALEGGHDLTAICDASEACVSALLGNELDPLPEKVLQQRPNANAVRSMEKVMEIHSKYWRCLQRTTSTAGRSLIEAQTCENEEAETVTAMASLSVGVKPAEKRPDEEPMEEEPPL

HDAC4-CD [2] = molecular target: T2, HDAC4-CD (Homo sapiens, UniProt P56524); test: Inhibition of HDAC4-CD activity on Lys-Trifluoro substrate; format: biochemical; settings: HDAC4-CD 0.5 nM, FIG. 6
T2 construct: The HDAC4 C-terminal region from T-653 to L-1084; 6xHis; made in house; host or cells: E. coli BL21 Star (DE3)
T2 sequence (P56524 653-1084): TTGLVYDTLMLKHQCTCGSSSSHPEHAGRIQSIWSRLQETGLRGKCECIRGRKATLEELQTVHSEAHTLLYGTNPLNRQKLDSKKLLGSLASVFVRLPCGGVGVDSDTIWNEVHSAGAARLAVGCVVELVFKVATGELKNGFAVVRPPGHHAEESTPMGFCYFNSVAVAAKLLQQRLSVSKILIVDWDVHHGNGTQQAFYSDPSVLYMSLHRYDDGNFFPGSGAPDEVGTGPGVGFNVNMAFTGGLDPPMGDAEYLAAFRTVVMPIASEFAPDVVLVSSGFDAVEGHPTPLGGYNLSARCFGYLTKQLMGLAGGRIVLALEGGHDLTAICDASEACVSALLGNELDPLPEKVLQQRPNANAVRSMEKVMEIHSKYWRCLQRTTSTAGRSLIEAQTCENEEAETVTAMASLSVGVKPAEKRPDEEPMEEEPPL

HDAC from rat liver = settings: cited from earlier work
HDAC4-FLAG [3] = test: Enzymatic activity of HDAC4-FLAG, inhibition (Biomol assay kit and histone substrates); format: biochemical; settings: FIG. 2
HDAC4-CD [4] = molecular target: T2, HDAC4-CD; test: Activity on Boc-L-Lys(ε-trifluoroacetyl)-MCA compared with Biomol standard substrate, HDAC4-CD; format: biochemical; settings: FIG. 5
From the text: (§1) The activities measured on Boc-L-Lys(ε-trifluoroacetyl)-MCA were compared with activities on the Biomol standard substrate (not shown).

HDAC8 [5] = molecular target: T3, HDAC8 (Homo sapiens, UniProt Q9BY41); test: Activity on Boc-L-Lys(ε-trifluoroacetyl)-MCA compared with Biomol standard substrate, HDAC8; format: biochemical; settings: HDAC8, FIG. 5
T3 sequence (Q9BY41 1-377): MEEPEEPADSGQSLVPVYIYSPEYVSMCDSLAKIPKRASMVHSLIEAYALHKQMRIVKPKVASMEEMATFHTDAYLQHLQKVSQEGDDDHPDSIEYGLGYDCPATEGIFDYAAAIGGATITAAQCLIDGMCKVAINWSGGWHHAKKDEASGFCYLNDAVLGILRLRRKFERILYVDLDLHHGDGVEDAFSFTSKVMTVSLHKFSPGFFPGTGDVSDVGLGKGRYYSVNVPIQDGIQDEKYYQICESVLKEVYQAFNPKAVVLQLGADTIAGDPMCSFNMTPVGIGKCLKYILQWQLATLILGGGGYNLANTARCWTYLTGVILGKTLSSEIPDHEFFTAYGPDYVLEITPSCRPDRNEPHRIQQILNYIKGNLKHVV
From the text: as §1

HDAC3 = HDAC3 (Homo sapiens, UniProt O15379); test: Activity on Boc-L-Lys(ε-trifluoroacetyl)-MCA compared with Biomol standard substrate, HDAC3; format: biochemical; settings: HDAC3, FIG. 5
Sequence of HDAC3 (O15379 whole entry): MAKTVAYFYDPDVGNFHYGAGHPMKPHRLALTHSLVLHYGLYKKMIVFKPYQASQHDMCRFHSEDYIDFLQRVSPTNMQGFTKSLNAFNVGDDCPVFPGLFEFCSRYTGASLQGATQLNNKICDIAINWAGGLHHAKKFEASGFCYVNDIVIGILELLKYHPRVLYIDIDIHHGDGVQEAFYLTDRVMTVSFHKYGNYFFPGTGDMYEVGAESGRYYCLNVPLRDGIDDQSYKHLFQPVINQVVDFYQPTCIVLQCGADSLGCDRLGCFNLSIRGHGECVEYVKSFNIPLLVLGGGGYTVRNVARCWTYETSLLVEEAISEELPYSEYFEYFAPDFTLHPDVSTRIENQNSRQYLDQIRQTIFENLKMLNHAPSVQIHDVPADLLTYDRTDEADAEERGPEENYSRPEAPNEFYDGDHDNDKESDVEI
Sequence of HDAC3 (Q9Y618 whole entry partner): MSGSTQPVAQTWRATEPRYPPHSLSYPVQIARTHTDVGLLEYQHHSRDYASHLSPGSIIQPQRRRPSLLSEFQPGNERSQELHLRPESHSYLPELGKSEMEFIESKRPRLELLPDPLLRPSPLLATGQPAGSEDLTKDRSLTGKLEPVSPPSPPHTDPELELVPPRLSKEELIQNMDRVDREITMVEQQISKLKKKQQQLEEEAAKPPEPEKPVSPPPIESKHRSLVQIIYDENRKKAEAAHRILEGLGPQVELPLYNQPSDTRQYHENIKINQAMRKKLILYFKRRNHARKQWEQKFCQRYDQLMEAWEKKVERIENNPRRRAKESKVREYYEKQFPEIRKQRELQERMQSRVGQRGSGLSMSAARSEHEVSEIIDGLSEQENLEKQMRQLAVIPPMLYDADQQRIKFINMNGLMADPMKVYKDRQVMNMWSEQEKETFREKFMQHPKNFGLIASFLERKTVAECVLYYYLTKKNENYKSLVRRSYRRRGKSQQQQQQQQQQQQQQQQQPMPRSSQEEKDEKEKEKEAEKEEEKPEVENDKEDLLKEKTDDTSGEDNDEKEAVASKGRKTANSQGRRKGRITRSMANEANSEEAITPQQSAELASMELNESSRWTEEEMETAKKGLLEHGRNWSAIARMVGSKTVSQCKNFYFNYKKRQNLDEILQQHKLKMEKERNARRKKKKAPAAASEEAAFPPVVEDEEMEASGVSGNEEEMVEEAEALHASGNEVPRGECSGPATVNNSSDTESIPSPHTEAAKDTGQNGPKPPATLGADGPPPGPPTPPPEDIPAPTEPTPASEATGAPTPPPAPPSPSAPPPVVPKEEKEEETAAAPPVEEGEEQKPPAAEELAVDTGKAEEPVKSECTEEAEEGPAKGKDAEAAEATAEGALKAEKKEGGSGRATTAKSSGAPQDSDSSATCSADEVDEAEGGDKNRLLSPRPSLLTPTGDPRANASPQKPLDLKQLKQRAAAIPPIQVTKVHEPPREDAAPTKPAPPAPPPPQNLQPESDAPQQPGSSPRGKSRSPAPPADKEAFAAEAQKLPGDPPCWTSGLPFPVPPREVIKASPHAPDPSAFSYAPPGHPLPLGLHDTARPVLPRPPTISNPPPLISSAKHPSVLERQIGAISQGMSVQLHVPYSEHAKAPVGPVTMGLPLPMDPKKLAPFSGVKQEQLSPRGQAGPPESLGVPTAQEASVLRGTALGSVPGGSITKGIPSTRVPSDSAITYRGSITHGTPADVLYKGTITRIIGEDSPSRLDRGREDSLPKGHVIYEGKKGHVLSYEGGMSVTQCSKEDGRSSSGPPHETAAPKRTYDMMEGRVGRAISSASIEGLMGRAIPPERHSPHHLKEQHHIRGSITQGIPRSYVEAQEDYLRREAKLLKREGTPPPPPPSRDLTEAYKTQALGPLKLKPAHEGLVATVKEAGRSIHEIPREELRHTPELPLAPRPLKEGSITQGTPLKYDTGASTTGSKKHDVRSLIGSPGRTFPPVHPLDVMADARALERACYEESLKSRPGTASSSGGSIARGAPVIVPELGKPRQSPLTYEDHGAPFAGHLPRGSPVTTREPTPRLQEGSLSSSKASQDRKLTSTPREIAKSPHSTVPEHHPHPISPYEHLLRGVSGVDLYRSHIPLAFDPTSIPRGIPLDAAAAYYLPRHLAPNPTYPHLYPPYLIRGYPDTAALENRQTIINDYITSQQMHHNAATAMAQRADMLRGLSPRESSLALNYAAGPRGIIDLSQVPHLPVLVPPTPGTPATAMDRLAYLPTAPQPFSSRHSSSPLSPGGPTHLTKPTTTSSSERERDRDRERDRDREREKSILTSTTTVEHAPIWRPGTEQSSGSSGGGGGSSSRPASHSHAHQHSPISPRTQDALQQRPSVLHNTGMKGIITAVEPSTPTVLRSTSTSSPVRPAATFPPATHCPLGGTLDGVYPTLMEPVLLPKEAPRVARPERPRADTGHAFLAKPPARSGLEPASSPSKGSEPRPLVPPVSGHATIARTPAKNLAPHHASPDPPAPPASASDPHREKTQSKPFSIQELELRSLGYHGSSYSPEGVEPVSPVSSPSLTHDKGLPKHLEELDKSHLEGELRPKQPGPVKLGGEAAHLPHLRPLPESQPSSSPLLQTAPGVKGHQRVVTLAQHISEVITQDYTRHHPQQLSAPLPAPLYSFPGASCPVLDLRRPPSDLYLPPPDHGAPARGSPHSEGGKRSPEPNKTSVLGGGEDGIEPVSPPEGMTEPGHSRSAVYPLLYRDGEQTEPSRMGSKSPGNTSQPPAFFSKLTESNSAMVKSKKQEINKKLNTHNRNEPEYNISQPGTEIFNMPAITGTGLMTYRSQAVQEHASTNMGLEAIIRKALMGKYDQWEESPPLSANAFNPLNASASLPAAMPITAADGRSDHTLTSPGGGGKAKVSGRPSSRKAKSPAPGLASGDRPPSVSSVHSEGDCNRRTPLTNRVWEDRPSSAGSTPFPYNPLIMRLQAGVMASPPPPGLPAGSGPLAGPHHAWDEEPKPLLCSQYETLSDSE
From the text: as §1

HDAC1 = HDAC1 (Homo sapiens, UniProt Q13547); test: Activity on Boc-L-Lys(ε-trifluoroacetyl)-MCA compared with Biomol standard substrate, HDAC1; format: biochemical; settings: HDAC1, FIG. 5
Sequence of HDAC1 (Q13547 whole entry): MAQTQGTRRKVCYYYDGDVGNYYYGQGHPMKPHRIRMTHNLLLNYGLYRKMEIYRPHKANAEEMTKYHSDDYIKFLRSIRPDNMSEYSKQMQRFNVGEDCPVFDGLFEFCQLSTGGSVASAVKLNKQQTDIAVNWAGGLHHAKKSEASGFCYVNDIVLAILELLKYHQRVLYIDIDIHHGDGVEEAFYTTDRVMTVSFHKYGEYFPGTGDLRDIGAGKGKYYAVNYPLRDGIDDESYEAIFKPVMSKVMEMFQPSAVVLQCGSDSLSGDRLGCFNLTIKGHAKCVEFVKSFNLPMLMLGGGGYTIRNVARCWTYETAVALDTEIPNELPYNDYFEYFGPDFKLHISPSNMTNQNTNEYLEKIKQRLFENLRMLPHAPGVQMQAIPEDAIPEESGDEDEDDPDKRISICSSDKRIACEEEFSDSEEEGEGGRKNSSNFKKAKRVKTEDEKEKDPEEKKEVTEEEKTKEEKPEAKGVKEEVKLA
From the text: as §1

HDAC6 = molecular target: T4, HDAC6 (Homo sapiens, UniProt Q9UBN7); test: Activity on Boc-L-Lys(ε-trifluoroacetyl)-MCA compared with Biomol standard substrate, HDAC6; format: biochemical; settings: HDAC6, FIG. 5
T4 sequence (Q9UBN7 1-1215): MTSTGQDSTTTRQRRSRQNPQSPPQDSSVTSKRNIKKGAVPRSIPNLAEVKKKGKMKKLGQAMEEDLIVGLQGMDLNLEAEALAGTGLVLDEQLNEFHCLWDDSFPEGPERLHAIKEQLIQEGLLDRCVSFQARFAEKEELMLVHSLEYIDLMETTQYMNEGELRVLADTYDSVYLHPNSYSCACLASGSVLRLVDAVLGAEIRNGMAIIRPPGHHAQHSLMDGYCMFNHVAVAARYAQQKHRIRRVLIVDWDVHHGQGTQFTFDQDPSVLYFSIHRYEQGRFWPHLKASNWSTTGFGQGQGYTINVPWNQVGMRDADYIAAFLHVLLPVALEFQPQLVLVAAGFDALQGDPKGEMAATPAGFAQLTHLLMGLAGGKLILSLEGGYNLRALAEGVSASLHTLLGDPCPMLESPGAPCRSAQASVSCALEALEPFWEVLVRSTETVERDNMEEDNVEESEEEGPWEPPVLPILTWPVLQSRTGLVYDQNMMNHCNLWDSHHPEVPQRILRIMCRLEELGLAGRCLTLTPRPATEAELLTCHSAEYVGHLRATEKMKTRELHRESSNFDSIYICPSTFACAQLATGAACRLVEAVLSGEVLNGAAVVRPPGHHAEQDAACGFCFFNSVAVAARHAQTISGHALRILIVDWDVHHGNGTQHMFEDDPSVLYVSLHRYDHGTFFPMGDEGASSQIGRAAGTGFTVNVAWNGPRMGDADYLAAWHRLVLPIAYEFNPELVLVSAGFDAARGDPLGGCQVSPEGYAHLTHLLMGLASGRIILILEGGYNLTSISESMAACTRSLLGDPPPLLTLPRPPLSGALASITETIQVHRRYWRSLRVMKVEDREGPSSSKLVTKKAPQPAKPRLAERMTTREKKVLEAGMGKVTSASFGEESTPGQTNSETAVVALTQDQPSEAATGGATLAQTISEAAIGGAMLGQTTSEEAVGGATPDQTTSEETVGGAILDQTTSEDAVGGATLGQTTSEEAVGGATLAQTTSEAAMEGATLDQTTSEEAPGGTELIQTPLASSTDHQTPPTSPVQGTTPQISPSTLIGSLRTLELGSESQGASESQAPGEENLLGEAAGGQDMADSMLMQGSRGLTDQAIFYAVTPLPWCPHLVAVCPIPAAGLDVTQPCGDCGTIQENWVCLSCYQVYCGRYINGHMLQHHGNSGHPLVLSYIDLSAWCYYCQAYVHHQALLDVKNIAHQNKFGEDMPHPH
From the text: as §1

HDAC8 [6] = molecular target: T3, HDAC8; settings: substrate of (recombinant) human HDAC8; cited from earlier work

inhibition of HDAC4-CD activity on Lys-Trifluoro substrate (HDAC4-CD [2]): inhibited
Compound: O=C(/C=C/c1ccc(CN(CCO)CCc2c[nH]c3ccccc23)cc1)NO [LAQ824]
binding to HDAC4-FLAG (HDAC4-FLAG [1]): able to significantly and specifically bind

Compound: CC(=O)NCCCC[C@H](NC(=O)OC(C)(C)C)C(=O)Nc1ccc2c(C)cc(=O)oc2c1 [Boc-L-Lys(ε-acetyl)-MCA, reference compound]
Km (HDAC from rat liver; substrate of HDAC from rat liver (mixture of HDAC1, 2 and 3)): 3.7 µM

Compound: Nc1ccccc1NC(=O)c1ccc(CNC(=O)OCc2cccnc2)cc1 [MS27-275]
inhibition constants (HDAC4-FLAG [3]): good inhibition constants

enzyme activity on substrate compared with Biomol standard substrate (HDAC4-CD [4]): work better
enzyme activity on substrate compared with Biomol standard substrate (HDAC8 [5]): work better
enzyme activity on substrate compared with Biomol standard substrate (HDAC3): works with the same efficiency
enzyme activity on substrate compared with Biomol standard substrate (HDAC1): did not work
enzyme activity on substrate compared with Biomol standard substrate (HDAC6): did not work
Compound: Cc1cc(=O)oc2ccc(NC(=O)[C@H](CCCCNC(=O)C(F)(F)F)NC(=O)OC(C)(C)C)cc12 [Boc-L-Lys(ε-trifluoroacetyl)-MCA, tert-Butyl [(1S)-5-(trifluoroacetylamino)-1-[[(4-methyl-2-oxo-2H-1-benzopyran-6-yl)amino]carbonyl]pentyl]-carbamic Acid Ester]
conversion of substrate by rat liver HDAC (HDAC from rat liver; rat liver HDAC): did not convert
Km (HDAC8 [6]): 247 µM
